Experimental findings from patent US8067424B2, “Selective inhibitors for cyclin-dependent kinases” (Emory University, priority 2007, dated 2011) are described below.

The target in test [1] is T1, CDK2/cyclin A complex (Homo sapiens, UniProt P24941).
T1 construct: purchased Proqinase GmbH, Germany
Kind of test: CDK2/cyclin A kinase assay (as for CDK7). Format: biochemical. Particulars: for remaining activity at 0.1 µM: 100 nM, mean of three (standard deviation), read-out: CDK2 % remaining kinase activity after incubation with 100 nM of compound. A digest of the protocol: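 Run as the CDK7 protocol with 50 ng CDK2/cyclin A or 100 ng CDK9/cyclin T; compound 30 min at 30 °C, then 2 μM ATP final for 20 min at 30 °C. ATP depletion by luciferase luminescence (PKLight), triplicate, normalised to no-enzyme and enzyme controls.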

Test [2] addresses T2, CDK9/cyclin T complex (Homo sapiens, UniProt P50750).
T2 construct: purchased Proqinase GmbH, Germany
Kind of test: CDK9/cyclin T kinase assay (as for CDK7). Format: biochemical. Conditions: 100 nM; mean of three (standard deviation); read-out: CDK9 % remaining kinase activity after incubation with 100 nM of compound. As to the method:
(§1) Prepared test compounds, prepared at concentrations of 1000, 100, 10, 1 and 0.1 μM. Diluted 1 in 40 in ddH2O and added 1 μl of test compound or DMSO (controls). • 3. Incubated at 30° C. for 30 mins in a water bath. • 4. Added 10 µl of ATP […] per reaction to get a final concentration of 2 μM ATP. • 5. Made up to 25 μl total volume with ddH2O • 6. Incubated for 20 min at 30° C. in a water bath • 7. Used the PKLight Kinase assay (Cambrex, UK), add to each reaction 10 μl of stop reaction and mix thoroughly. Incubated at room temp for 10 min. • 8. Added 20 μ1 Luciferase reaction mixture (Cambrex, UK) per reaction, and further incubated at room temp for 10 mins and determined luciferase activities according to manufacturer's methods. Kinase reactions were added to 96 well microplates and luciferase activities determined using a Packard TopCount NXT™ luminescent counter (TopCount 9904). The luminometer was programmed to take a read time of 0.1 integrated reading and emission of light was detectable at 560 nm. • 9. All kinase inhibition assays were carried out in triplicate. As the bioluminescent signal is inversely proportional to kinase activity, all values were deducted from the no enzyme control. These values were then plotted utilizing the enzyme control as a reference to 100% activity and compared to all other values.
Inhibition of CDK2 was assessed using 50 ng CDK2/cyclin A complex (Proqinase GmbH, Germany), as above for CDK7 Inhibition of CDK9 was assessed using 100 ng CDK9/cyclin T complex (Proqinase GmbH, Germany), as above for CDK7.

Test [3] concerns the target T3, CDK4 (Homo sapiens, UniProt P11802). The test is described as follows: CDK4 in vitro kinase inhibition (protocol similar to Example 14). Format: biochemical. Particulars: for remaining activity at 0.1 µM: 100 nM, mean of three (standard deviation), read-out: CDK4 % remaining kinase activity after incubation with 100 nM of compound; for IC50: Table 7, mean of three experiments. As to the method:
as §1
(§2) This example provides in vitro kinase inhibition data for various compounds within the scope of the invention versus CDK 2, CDK 4, CDK, 5, CDK 7 and CDK 9. The protocol was similar to that shown in Example 14 Inhibition of the protein kinases was performed in triplicate using each compound at 100 nM.
(§3) This example provides in vitro kinase inhibition data for various compounds within the scope of the invention versus CDK 2, CDK 4, CDK, 5, CDK 7 and CDK 9.

Test [4] concerns the target CDK 5 (Homo sapiens, UniProt Q00535). Kind of test: CDK5 in vitro kinase inhibition (protocol similar to Example 14). Format: biochemical. Particulars: 100 nM; mean of three (standard deviation); read-out: CDK5 % remaining kinase activity after incubation with 100 nM of compound. As to the method:
as §1, §2, §3

Test [5] concerns MCF-7. Kind of test: Growth assay (SRB, 72 hours). Format: cell-based. Particulars: MCF-7, 72 hours; for IC50 / CC50: Homo sapiens, MCF7; for IC50: read-out: Growth Inhibition MCF7 IC50; for CC50: read-out: Growth Inhibition MCF7 LC50. As to the method:
Growth assay: The cell lines (MCF-7 and MDA-MB-231; purchased from ATCC, USA) were routinely passaged in Dulbecco's Modified Eagle's Medium (DMEM), supplemented with 10% fetal calf serum (FCS) and kept in a 37° C. incubator with 5% CO2. For the growth assay, 6000 cells were seeded into each well of 96-well plates in DMEM containing 10% FCS. Compounds prepared in DMSO were added to the medium at concentrations ranging from 0.4-100 μM. The cells were incubated for a further 72 hours, at which time they were fixed by the addition of 100 μl/well of ice-cold 40% TCA. The plates were left for 1 hour, washed in water and 100 μl of 0.4% (w/v) sulphorhodamine (SRB; Sigma-Aldrich, UK) prepared in 1% acetic acid was added. Plates were washed in 1% acetic acid to remove excess SRB reagent, air dried and bound dye was solubilized by the addition of 100 μl of 10 mM Tris base. The plates were read at 492 nm using a plate reader.

In test [6] the test system is MCF-7 cell line. Kind of test: cells. Format: cell-based. Conditions: Homo sapiens, MCF-7, SRB assay, 24 hours; for LC50 (concentration causing 50% net cell kill) / IC (total growth inhibition): MCF7, 24 h; for IC (total growth inhibition): read-out: TGI; for IC50: MCF7, mean of three experiments, read-out: IC50. On the technique in general: In SRB staining, fixed cells bind dye roughly in proportion to their protein.

Test [7] addresses CAK (CDK7) (Homo sapiens, UniProt P50613). Kind of test: 32P incorporation kinase assay, CAK.
In test [8] the target is T3, CDK4. Kind of test: 32P incorporation kinase assay, CDK4.
For test [9], the target named is T4, CDK7 complex (CDK7, Cyclin H, MAT1) (Homo sapiens, UniProt P50613).
T4 construct: purchased Proqinase GmbH, Germany
T4 sequence (P50613 whole entry): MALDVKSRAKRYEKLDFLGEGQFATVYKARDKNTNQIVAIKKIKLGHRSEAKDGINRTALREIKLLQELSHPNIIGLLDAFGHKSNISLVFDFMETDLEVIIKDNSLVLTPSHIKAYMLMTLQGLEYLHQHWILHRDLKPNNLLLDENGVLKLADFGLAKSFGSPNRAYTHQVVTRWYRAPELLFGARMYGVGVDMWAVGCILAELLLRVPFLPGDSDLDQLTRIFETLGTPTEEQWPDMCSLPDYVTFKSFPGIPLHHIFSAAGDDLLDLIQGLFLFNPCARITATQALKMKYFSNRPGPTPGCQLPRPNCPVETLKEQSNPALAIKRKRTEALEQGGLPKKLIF
T4 sequence (P51946 whole entry partner): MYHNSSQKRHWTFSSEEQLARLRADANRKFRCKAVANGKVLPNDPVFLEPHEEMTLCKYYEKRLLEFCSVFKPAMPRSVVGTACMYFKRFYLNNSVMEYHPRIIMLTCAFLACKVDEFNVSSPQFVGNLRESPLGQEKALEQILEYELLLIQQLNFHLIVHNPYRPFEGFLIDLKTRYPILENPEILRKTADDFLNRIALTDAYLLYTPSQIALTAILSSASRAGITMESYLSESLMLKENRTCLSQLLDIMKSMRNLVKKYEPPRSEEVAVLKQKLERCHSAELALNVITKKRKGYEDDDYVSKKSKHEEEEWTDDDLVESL
T4 sequence (P51948 whole entry partner): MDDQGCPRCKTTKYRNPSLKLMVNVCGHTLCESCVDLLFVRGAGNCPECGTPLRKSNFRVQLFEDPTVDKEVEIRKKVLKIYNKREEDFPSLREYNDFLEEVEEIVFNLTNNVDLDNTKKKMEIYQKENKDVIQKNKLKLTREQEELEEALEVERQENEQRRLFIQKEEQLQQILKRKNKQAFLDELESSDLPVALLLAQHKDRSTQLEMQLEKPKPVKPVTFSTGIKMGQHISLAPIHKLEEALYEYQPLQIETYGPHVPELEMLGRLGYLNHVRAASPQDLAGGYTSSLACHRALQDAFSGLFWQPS
Kind of test: CDK7/CycH/MAT1 trimeric complex kinase assay (PKLight luciferase). Conditions: 100 nM; mean of three (standard deviation); read-out: CDK7 % remaining kinase activity after incubation with 100 nM of compound. Format: biochemical. A digest of the protocol:
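Compound was preincubated with the kinase for 30 min at 30 °C; the reaction then ran for 20 min at 30 °C with 2 μM ATP final. Remaining ATP was measured by PKLight luciferase luminescence at 560 nm. Values were corrected against the no-enzyme control and expressed relative to enzyme-only activity (100%), in triplicate.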

Structures are written as SMILES.

T3 sequence (P11802 whole entry): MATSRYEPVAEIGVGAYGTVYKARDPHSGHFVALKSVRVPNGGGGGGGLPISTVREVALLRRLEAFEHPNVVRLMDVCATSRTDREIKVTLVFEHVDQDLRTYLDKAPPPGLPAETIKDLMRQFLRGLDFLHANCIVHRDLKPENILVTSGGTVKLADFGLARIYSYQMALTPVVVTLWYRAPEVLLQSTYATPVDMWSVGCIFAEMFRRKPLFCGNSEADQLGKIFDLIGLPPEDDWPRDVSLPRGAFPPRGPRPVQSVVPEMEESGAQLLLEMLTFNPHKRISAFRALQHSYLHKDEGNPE
T3 sequence (P24385 whole entry partner): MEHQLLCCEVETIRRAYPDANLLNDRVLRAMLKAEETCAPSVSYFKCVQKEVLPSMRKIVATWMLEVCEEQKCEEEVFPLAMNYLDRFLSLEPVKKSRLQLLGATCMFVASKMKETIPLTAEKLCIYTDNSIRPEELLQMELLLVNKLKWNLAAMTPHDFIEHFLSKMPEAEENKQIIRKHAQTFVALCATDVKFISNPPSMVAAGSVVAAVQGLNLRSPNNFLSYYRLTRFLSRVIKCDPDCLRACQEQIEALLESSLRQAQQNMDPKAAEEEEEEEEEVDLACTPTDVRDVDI
T2 sequence (P50750 whole entry): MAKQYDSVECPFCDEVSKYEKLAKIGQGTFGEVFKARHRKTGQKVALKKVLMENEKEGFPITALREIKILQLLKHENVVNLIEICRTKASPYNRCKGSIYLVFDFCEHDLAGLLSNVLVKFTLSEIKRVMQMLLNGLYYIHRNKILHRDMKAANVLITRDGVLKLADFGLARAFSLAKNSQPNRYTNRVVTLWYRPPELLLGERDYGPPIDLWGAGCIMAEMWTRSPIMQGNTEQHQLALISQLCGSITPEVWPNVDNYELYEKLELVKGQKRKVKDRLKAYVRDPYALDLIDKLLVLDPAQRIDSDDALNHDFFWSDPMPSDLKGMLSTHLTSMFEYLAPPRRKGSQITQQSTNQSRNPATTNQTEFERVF
T2 sequence (O60563 whole entry partner): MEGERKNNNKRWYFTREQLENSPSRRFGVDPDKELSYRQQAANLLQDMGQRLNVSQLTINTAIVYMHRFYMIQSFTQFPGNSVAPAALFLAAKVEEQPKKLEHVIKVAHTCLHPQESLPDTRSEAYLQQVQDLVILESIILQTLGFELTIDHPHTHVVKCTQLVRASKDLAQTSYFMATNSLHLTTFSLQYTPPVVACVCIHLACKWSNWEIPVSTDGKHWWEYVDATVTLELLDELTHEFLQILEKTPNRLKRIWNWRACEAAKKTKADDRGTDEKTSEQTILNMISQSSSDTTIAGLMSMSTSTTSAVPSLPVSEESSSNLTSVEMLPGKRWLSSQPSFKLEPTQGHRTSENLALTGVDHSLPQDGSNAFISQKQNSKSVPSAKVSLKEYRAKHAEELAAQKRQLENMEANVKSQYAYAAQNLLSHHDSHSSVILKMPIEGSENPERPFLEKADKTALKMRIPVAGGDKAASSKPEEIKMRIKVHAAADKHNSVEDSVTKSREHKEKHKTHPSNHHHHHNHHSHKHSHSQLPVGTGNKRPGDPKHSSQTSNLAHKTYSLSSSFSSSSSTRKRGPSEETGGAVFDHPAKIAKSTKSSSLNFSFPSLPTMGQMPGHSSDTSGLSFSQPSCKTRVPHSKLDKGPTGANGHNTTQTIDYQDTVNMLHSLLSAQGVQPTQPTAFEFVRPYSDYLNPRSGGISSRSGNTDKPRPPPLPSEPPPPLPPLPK
CDK 5, sequence (Q00535 whole entry): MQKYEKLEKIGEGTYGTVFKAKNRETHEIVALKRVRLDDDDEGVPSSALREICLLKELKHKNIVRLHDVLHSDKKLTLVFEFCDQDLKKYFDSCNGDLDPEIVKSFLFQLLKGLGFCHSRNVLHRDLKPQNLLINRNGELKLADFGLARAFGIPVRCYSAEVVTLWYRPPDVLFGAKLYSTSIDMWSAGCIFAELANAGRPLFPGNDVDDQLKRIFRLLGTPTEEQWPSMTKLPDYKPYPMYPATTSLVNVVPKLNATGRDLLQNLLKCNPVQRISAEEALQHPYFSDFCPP
CDK 5, sequence (Q15078 whole entry partner): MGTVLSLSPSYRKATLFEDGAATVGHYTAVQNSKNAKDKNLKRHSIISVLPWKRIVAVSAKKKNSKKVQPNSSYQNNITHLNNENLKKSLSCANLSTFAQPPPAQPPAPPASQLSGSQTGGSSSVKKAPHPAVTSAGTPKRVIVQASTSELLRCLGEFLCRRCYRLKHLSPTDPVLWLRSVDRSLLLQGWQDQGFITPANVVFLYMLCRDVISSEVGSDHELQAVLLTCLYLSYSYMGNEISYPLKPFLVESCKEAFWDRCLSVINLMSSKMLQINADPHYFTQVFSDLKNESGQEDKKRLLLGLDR
CAK (CDK7), sequence (P50613 whole entry): as the sequence (P50613 whole entry) above
CAK (CDK7), sequence (P51946 whole entry partner): as the sequence (P51946 whole entry partner) above
CAK (CDK7), sequence (P51948 whole entry partner): as the sequence (P51948 whole entry partner) above

Regarding `CC(C)c1cnn2c(NCc3ccccc3)cc(NCCCCCCC#N)nc12` [ICEC0179], the remaining activity at 0.1 µM came out at 52% in test [1], 97% in test [2], 99% in test [3] and 94% in test [4]. Also, the IC50 in test [3] is over 1000 nM; in [5], 35 µM; in [6], 44 µM; in test [7], 20 nM; in [8], over 1000 nM. Further, the CC50 in test [5] was over 100 µM. The “Growth Inhibition MCF7 TGI” value in test [5] was over 100 µM. Also, the LC50 (concentration causing 50% net cell kill) in test [6] is 16 µM. In [6], the IC (total growth inhibition) turned out to be 26 µM.
In the case of `CC(C)c1cnn2c(NCc3ccccc3F)cc(NC(CO)CCCCCCc3ccccn3)nc12` (stereo not shown) [ICEC0160], the remaining activity at 0.1 µM was 97% in [1], 100% in test [2], 99% in test [3] and 92% in test [4]. Besides, the IC50 in [5] is 55 µM; in test [7], 44 nM; in test [8], over 1000 nM. The CC50 in [5] is over 100 µM. In [5], the “Growth Inhibition MCF7 TGI” value is over 100 µM.
Consider `CC(C)c1cnn2c(NCc3ccccc3F)cc(NC(CO)CCCCCCCc3ccc(F)nc3)nc12` (stereo not shown) [ICEC0138], for which the remaining activity at 0.1 µM in test [1] was found to be 100%; in test [2], 100%; in test [3] it was 92%; in test [4] it was 98%. Moreover, the IC50 in [3] is over 1000 nM; in [5], 69 µM; in [7], 46 nM; in test [8], over 1000 nM. Further, in [5], the CC50 was over 100 µM. Also, in test [5], the “Growth Inhibition MCF7 TGI” value is over 100 µM.
For the compound `CC(C)c1cnn2c(NCc3ccccc3F)cc(N[C@@H](CO)CCCCCCc3ncccn3)nc12` [ICEC0161], the remaining activity at 0.1 µM in [1] worked out at 71%; in test [2], 100%; in [3], 99%; in test [4], 92%. Moreover, the IC50 was over 1000 nM in test [3], 23 µM in test [5], 55 nM in test [7] and over 1000 nM in test [8]. For the same compound, the CC50 in test [5] is over 100 µM. The “Growth Inhibition MCF7 TGI” value in test [5] was determined as 36 µM.
Take `CC(C)c1cnn2c(NCc3ccccc3)cc(N[C@@H](CO)CCCCCCCc3ccc(F)nc3)nc12` [ICEC0141]: the remaining activity at 0.1 µM was found to be 84% in test [1], 95% in test [2], 99% in [3] and 95% in test [4]. Besides, the IC50 is over 1000 nM in [3], over 100 µM in [5], 80 nM in test [7] and over 1000 nM in [8]. Moreover, the CC50 in test [5] turned out to be 42 µM. Moreover, the “Growth Inhibition MCF7 TGI” value in test [5] is over 100 µM.
Regarding `CC(C)c1cnn2c(NCc3ccccc3F)cc(NC(CO)CCCCCCCc3cncnc3)nc12` (stereo not shown) [ICEC0168], the remaining activity at 0.1 µM was 83% in test [1], 91% in [2], 96% in test [3] and 97% in [4]. The IC50 in test [1] (Table 7, mean of three experiments, read-out: CDK2 kinase inhibition in vitro (IC50)) is under 100 nM; in [3], over 1000 nM; in test [5] it was over 100 µM; in [6], over 100 µM; in test [7] it was 120 nM; in [8], over 1000 nM. For the same compound, in [5], the CC50 came to 35 µM. In addition, the “Growth Inhibition MCF7 TGI” value in test [5] is over 100 µM. Besides, the LC50 (concentration causing 50% net cell kill) in test [6] was found to be 25 µM. Further, the IC (total growth inhibition) in test [6] was found to be 55 µM.
Regarding `CC(C)c1cnn2c(NCc3ccccc3)cc(NC(CO)CCCCCCc3ccccn3)nc12` (stereo not shown) [ICEC0159], the remaining activity at 0.1 µM in [1] stood at 84%; in test [2], 100%; in [3] it was 98%; in [4], 89%. In addition, the IC50 in test [3] was over 1000 nM; in test [5] it was 87 µM; in test [7] it was 42 nM; in test [8], over 1000 nM. In test [5], the CC50 was over 100 µM. Further, the “Growth Inhibition MCF7 TGI” value in test [5] was over 100 µM.
Regarding `CC(C)c1cnn2c(NCc3ccccc3F)cc(NCC(O)CO)nc12` (stereo not shown) [ICEC0295, 3-(7-(2-fluorobenzylamino)-3-isopropylpyrazolo[1,5-a]pyrimidin-5-ylamino)propane-1,2-diol], the remaining activity at 0.1 µM amounted to 88% in test [9]; 98% in test [1]; 57% in test [2]; 99% in test [3]; 57% in test [4]. The compound also returned an LC50 (concentration causing 50% net cell kill) in [6] of 15 µM.
On to `CC(C)c1cnn2c(NCc3ccccc3)cc(NC3CCC(Nc4cc(NCc5ccccc5)n5ncc(C(C)C)c5n4)CC3)nc12` (stereo not shown) [ICEC0291], for which the remaining activity at 0.1 µM in test [9] came out at 99%; in [1] it was 98%; in [2], 90%; in [3] it was 98%; in test [4], 99%. The compound further showed an LC50 (concentration causing 50% net cell kill) in test [6] of 20 µM.

For orientation: remaining activity means the signal under treatment as a percentage of the control signal. By IC50 is commonly meant the concentration at which inhibition is half-maximal.
